Test results: patent US10167262B2, “Herbicidal substituted 3-arylpyrazoles” (FMC CORPORATION, priority 2014, dated 2019)

How the values were obtained:
Type in all cases: in vivo
[1] = system: ragweed (common ragweed, Ambrosia elatior); assay: Test E pre-/postemergence greenhouse test, plant response rating 0-100; details: Preemergence, scale 0 to 100
Method in brief: (§1)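 Ratings (0 no effect to 100 complete control) came from visual comparison with untreated controls 14 to 21 days after treatment. Compounds in a surfactant-containing non-phytotoxic solvent were applied preemergence to seeded silt loam and postemergence to plants at the 1- to 4-leaf stage.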

[2] = system: velvetleaf (Abutilon theophrasti); assay: as above; details: Preemergence, scale 0 to 100
Method in brief: as §1

[3] = system: cocklebur (common cocklebur, Xanthium strumarium); assay: as above; details: Preemergence, scale 0 to 100
Method in brief: as §1

[4] = system: smartweed (ladysthumb smartweed, Polygonum persicaria); assay: as above; details: Postemergence, scale 0 to 100
kochia (Kochia scoparia) = assay: as above; details: Preemergence, scale 0 to 100
Method in brief: as §1

[5] = system: surinam grass (Brachiaria decumbens); assay: as above; details: Preemergence, scale 0 to 100
Method in brief: as §1

[6] = system: large (Lg) crabgrass (Digitaria sanguinalis); assay: as above; details: Preemergence, scale 0 to 100
[7] = system: smartweed (ladysthumb smartweed, Polygonum persicaria); assay: as above; details: scale 0 to 100; for Smartweed plant response rating: Preemergence
[8] = system: blackgrass (Alopecurus myosuroides); assay: Test D postemergence controlled growth environment test, plant response rating 0-100
Text: (§2) Seeds of plant species selected from bluegrass (annual bluegrass, Poa annua), blackgrass (Alopecurus myosuroides), canarygrass (Phalaris minor), chickweed (common chickweed, Stellaria media), galium (catchweed bedstraw, Galium aparine), downy bromegrass (Bromus tectorum), field violet (Viola arvensis), green foxtail (Setaria viridis), deadnettle (henbit deadnettle, Lamium amplexicaule), Italian ryegrass (Lolium multiflorum), kochia (Kochia scoparia), lambsquarters (Chenopodium album), oilseed rape (Brassica napus), pigweed (Amaranthus retroflexus), Russian thistle (Salsola kali), spring barley (Hordeum vulgare), spring wheat (Triticum aestivum), wild buckwheat (Polygonum convolvulus), wild mustard (Sinapis arvensis), wild oat (Avena fatua), windgrass (Apera spica-venti), winter barley (Hordeum vulgare), and winter wheat (Triticum aestivum) were planted in pots containing Redi-Earth® planting medium (Scotts Company, 14111 Scottslawn Road, Marysville, Ohio 43041) comprising spaghnum peat moss, vermiculite, wetting agent and starter nutrients and treated with postemergence applications of test chemicals formulated in a non-phytotoxic solvent mixture which included a surfactant. Plants ranged in height from 2 to 18 cm (1- to 4-leaf stage). Treated plants and controls were maintained in a controlled growth environment for 14 days after which time all species were compared to controls and visually evaluated. Plant response ratings, summarized in Table D, are based on a scale of 0 to 100 where 0 is no effect and 100 is complete control. A dash (-) response means no test result.

wild oat (Avena fatua) = assay: as above
Text: as §2

[9] = system: pigweed (Amaranthus retroflexus); assay: as above
Text: as §2

[10] = system: oilseed rape (Brassica napus); assay: as above
Text: as §2

[11] = system: nightshade (eastern black nightshade, Solanum ptycanthum); assay: Test E pre-/postemergence greenhouse test, plant response rating 0-100; details: Preemergence, scale 0 to 100
Method in brief: as §1

[12] = system: lambsquarters (Chenopodium album); assay: as above; details: Preemergence, scale 0 to 100
Method in brief: as §1

## O=C(c1ccccc1)c1cn(S(=O)(=O)CC(F)(F)F)nc1-c1cc(Cl)cc(Cl)c1 [Compound 3]
[1]; 31 g ai/ha
  Ragweed plant response rating: 0
[1]; 62 g ai/ha
  Ragweed plant response rating: 0
[1]; 125 g ai/ha
  Ragweed plant response rating: 0
[1]; 250 g ai/ha
  Ragweed plant response rating: 100
[1]; 500 g ai/ha
  Ragweed plant response rating: 95
[2]; 31 g ai/ha
  Velvetleaf plant response rating: 20
[2]; 62 g ai/ha
  Velvetleaf plant response rating: 20
[2]; 125 g ai/ha
  Velvetleaf plant response rating: 35
[2]; 250 g ai/ha
  Velvetleaf plant response rating: 40
[2]; 500 g ai/ha
  Velvetleaf plant response rating: 80
[3]; 31 g ai/ha
  Cocklebur plant response rating: 0
[3]; 250 g ai/ha
  Cocklebur plant response rating: 0
[4]; 250 g ai/ha
  Plant response rating, Smartweed: 65
Kochia (Kochia scoparia); 31 g ai/ha
  Kochia plant response rating: 0
Kochia (Kochia scoparia); 62 g ai/ha
  Kochia plant response rating: 20
Kochia (Kochia scoparia); 125 g ai/ha
  Kochia plant response rating: 25
Kochia (Kochia scoparia); 250 g ai/ha
  Kochia plant response rating: 50
Kochia (Kochia scoparia); 500 g ai/ha
  Kochia plant response rating: 70
[5]; 31 g ai/ha
  Surinam Grass plant response rating: 0
[5]; 62 g ai/ha
  Surinam Grass plant response rating: 0
[5]; 125 g ai/ha
  Surinam Grass plant response rating: 0
[5]; 250 g ai/ha
  Surinam Grass plant response rating: 0
[5]; 500 g ai/ha
  Surinam Grass plant response rating: 0
[6]; 31 g ai/ha
  Crabgrass, Large plant response rating: 0
[6]; 62 g ai/ha
  Crabgrass, Large plant response rating: 0
[6]; 125 g ai/ha
  Crabgrass, Large plant response rating: 0
[6]; 250 g ai/ha
  Crabgrass, Large plant response rating: 0
[6]; 500 g ai/ha
  Crabgrass, Large plant response rating: 0
[7]; Postemergence, 500 g ai/ha
  Plant response rating, Smartweed: 90
[7]; 31 g ai/ha
  Smartweed plant response rating: 0
[7]; 62 g ai/ha
  Smartweed plant response rating: 0
[7]; 125 g ai/ha
  Smartweed plant response rating: 0
[7]; 250 g ai/ha
  Smartweed plant response rating: 0
[7]; 500 g ai/ha
  Smartweed plant response rating: 0

## O=C(c1ccccc1)c1cn(CO)nc1-c1cc(Cl)cc(Cl)c1 [Compound 15, [3-(3,5-dichlorophenyl)-1-(hydroxymethyl)-1H-pyrazol-4-yl]phenylmethanone]
[1]; 31 g ai/ha
  Ragweed plant response rating: 0
[1]; 62 g ai/ha
  Ragweed plant response rating: 0
[1]; 125 g ai/ha
  Ragweed plant response rating: 0
[1]; 250 g ai/ha
  Ragweed plant response rating: 95
[1]; 500 g ai/ha
  Ragweed plant response rating: 100
[2]; 31 g ai/ha
  Velvetleaf plant response rating: 20
[2]; 62 g ai/ha
  Velvetleaf plant response rating: 25
[2]; 125 g ai/ha
  Velvetleaf plant response rating: 35
[2]; 250 g ai/ha
  Velvetleaf plant response rating: 65
[2]; 500 g ai/ha
  Velvetleaf plant response rating: 100
[3]; 31 g ai/ha
  Cocklebur plant response rating: 0
[3]; 62 g ai/ha
  Cocklebur plant response rating: 0
[3]; 125 g ai/ha
  Cocklebur plant response rating: 0
[4]; 31 g ai/ha
  Plant response rating, Smartweed: 0
[4]; 62 g ai/ha
  Plant response rating, Smartweed: 75
Kochia (Kochia scoparia); 31 g ai/ha
  Kochia plant response rating: 0
Kochia (Kochia scoparia); 62 g ai/ha
  Kochia plant response rating: 40
Kochia (Kochia scoparia); 125 g ai/ha
  Kochia plant response rating: 20
Kochia (Kochia scoparia); 250 g ai/ha
  Kochia plant response rating: 75
Kochia (Kochia scoparia); 500 g ai/ha
  Kochia plant response rating: 80
[5]; 31 g ai/ha
  Surinam Grass plant response rating: 0
[5]; 62 g ai/ha
  Surinam Grass plant response rating: 0
[5]; 125 g ai/ha
  Surinam Grass plant response rating: 0
[5]; 250 g ai/ha
  Surinam Grass plant response rating: 0
[5]; 500 g ai/ha
  Surinam Grass plant response rating: 0
[6]; 31 g ai/ha
  Crabgrass, Large plant response rating: 0
[6]; 62 g ai/ha
  Crabgrass, Large plant response rating: 0
[6]; 125 g ai/ha
  Crabgrass, Large plant response rating: 0
[6]; 250 g ai/ha
  Crabgrass, Large plant response rating: 0
[6]; 500 g ai/ha
  Crabgrass, Large plant response rating: 0
[7]; 31 g ai/ha
  Smartweed plant response rating: 0
[7]; 62 g ai/ha
  Smartweed plant response rating: 0
[7]; 125 g ai/ha
  Smartweed plant response rating: 0
[7]; 250 g ai/ha
  Smartweed plant response rating: 100
[7]; 500 g ai/ha
  Smartweed plant response rating: 100

## Clc1cc(Cl)cc(-c2n[nH]cc2C(=NN2CCCC2)c2ccccc2)c1 [Compound 30, N-[[3-(3,5-dichlorophenyl)-1H-pyrazol-4-yl]phenylmethylene]-1-pyrrolidinamine]
[8]; 16 g ai/ha
  Plant response rating, Blackgrass: 0
[8]; 31 g ai/ha
  Plant response rating, Blackgrass: 0
[8]; 62 g ai/ha
  Plant response rating, Blackgrass: 0
[8]; 125 g ai/ha
  Plant response rating, Blackgrass: 10
[8]; 250 g ai/ha
  Plant response rating, Blackgrass: 10
Wild oat (Avena fatua); 16 g ai/ha
  Plant response rating, Oat, Wild: 0
Wild oat (Avena fatua); 31 g ai/ha
  Plant response rating, Oat, Wild: 0
Wild oat (Avena fatua); 62 g ai/ha
  Plant response rating, Oat, Wild: 0
Wild oat (Avena fatua); 125 g ai/ha
  Plant response rating, Oat, Wild: 0
Wild oat (Avena fatua); 250 g ai/ha
  Plant response rating, Oat, Wild: 0
[9]; 16 g ai/ha
  Plant response rating, Pigweed: 25
[9]; 31 g ai/ha
  Plant response rating, Pigweed: 60
[9]; 62 g ai/ha
  Plant response rating, Pigweed: 70
[9]; 125 g ai/ha
  Plant response rating, Pigweed: 80
[9]; 250 g ai/ha
  Plant response rating, Pigweed: 90
[10]; 16 g ai/ha
  Plant response rating, Oilseed Rape: 30
[10]; 31 g ai/ha
  Plant response rating, Oilseed Rape: 50
[10]; 62 g ai/ha
  Plant response rating, Oilseed Rape: 60
[10]; 125 g ai/ha
  Plant response rating, Oilseed Rape: 85
[10]; 250 g ai/ha
  Plant response rating, Oilseed Rape: 0

## Cn1cc(C(=O)c2ccccc2)c(-c2cc(Cl)cc(Cl)c2)n1 [Compound 54, [3-(3,5-dichlorophenyl)-1-methyl-1H-pyrazol-4-yl]phenylmethanone]
[1]; 125 g ai/ha
  Ragweed plant response rating: 35
[1]; 250 g ai/ha
  Ragweed plant response rating: 62
[2]; 125 g ai/ha
  Velvetleaf plant response rating: 87
[2]; 250 g ai/ha
  Velvetleaf plant response rating: 78
[3]; 125 g ai/ha
  Cocklebur plant response rating: 0
[3]; 250 g ai/ha
  Cocklebur plant response rating: 0
[4]; 250 g ai/ha
  Plant response rating, Smartweed: 0
Kochia (Kochia scoparia); 125 g ai/ha
  Kochia plant response rating: 0
Kochia (Kochia scoparia); 250 g ai/ha
  Kochia plant response rating: 28
Kochia (Kochia scoparia); 1000 g ai/ha
  Plant response rating, Kochia: 97
[11]; 125 g ai/ha
  Nightshade plant response rating: 0
[11]; 250 g ai/ha
  Nightshade plant response rating: 0
[12]; 125 g ai/ha
  Lambsquarters plant response rating: 68
[12]; 250 g ai/ha
  Lambsquarters plant response rating: 86
[12]; 1000 g ai/ha
  Plant response rating, Lambsquarters: 99
[7]; 125 g ai/ha
  Smartweed plant response rating: 0
[7]; 250 g ai/ha
  Smartweed plant response rating: 0
